Activity calls are given as the source filed them. The rule behind the calls is not given here.
Test system: CCRIS mutagenicity, Ames/micronucleus/aberration tests
Assay: CCRIS mutagenicity studies

Structure (SMILES): ClCCl
- mutagenic call (End Point: IN VITRO CHROMOSOMAL ABERRATIONS, Test System: CHO CELLS, Metabolic Activation: NONE): inactive; negative
- mutagenic call (End Point: IN VITRO CHROMOSOMAL ABERRATIONS, Test System: CHO CELLS, Metabolic Activation: RAT, LIVER, S-9, AROCLOR 1254): inactive; negative
- mutagenic call (Test System: AMES SALMONELLA TYPHIMURIUM, Strain/Indicator: NG54 (GSH), Metabolic Activation: GLUTATHIONE): active; positive
- mutagenic call (Test System: AMES SALMONELLA TYPHIMURIUM, Strain/Indicator: NG54 (GSH), Metabolic Activation: NONE): active; positive
- mutagenic call (Test System: AMES SALMONELLA TYPHIMURIUM, Strain/Indicator: NG54 (GSH), Metabolic Activation: RAT, LIVER, S-9, AROCLOR 1254): active; positive
- mutagenic call (Test System: AMES SALMONELLA TYPHIMURIUM, Strain/Indicator: NG54 (GSH), Metabolic Activation: RAT, LIVER, S-9, AROCLOR 1254, GLUTATHIONE): active; positive
- mutagenic call (Test System: AMES SALMONELLA TYPHIMURIUM, Strain/Indicator: NG-11, Metabolic Activation: GLUTATHIONE, Method: DESICCATOR): active; positive
- mutagenic call (Test System: AMES SALMONELLA TYPHIMURIUM, Strain/Indicator: NG-11, Metabolic Activation: NONE, Method: DESICCATOR): active; positive
- mutagenic call (Test System: AMES SALMONELLA TYPHIMURIUM, Strain/Indicator: RSJ100, Metabolic Activation: NONE, Method: STANDARD PLATE): active; positive
- mutagenic call (Test System: AMES SALMONELLA TYPHIMURIUM, Strain/Indicator: TA97, Metabolic Activation: NONE, Method: STANDARD PLATE): active; positive
- mutagenic call (Test System: AMES SALMONELLA TYPHIMURIUM, Strain/Indicator: TA97, Metabolic Activation: RAT, LIVER, S-9, AROCLOR 1254, Method: STANDARD PLATE): active; positive
- mutagenic call (Test System: AMES SALMONELLA TYPHIMURIUM, Strain/Indicator: TA98, Metabolic Activation: NONE, Method: GAS EXPOSURE): active; positive
- mutagenic call (Test System: AMES SALMONELLA TYPHIMURIUM, Strain/Indicator: TA98, Metabolic Activation: NONE, Method: STANDARD PLATE): inactive; negative
- mutagenic call (Test System: AMES SALMONELLA TYPHIMURIUM, Strain/Indicator: TA98, Metabolic Activation: RAT, LIVER, S-9, AROCLOR 1254, Method: STANDARD PLATE): active; positive
- mutagenic call (Test System: AMES SALMONELLA TYPHIMURIUM, Strain/Indicator: TA98, Metabolic Activation: RAT, LIVER, S-9, PHENOBARBITAL AND BETA-NAPHTHOFLAVONE, Method: GAS EXPOSURE): active; positive
- mutagenic call (Test System: AMES SALMONELLA TYPHIMURIUM, Strain/Indicator: TA98, Metabolic Activation: RAT, LIVER, S-9, PHENOBARBITAL, Method: DESICCATOR): active; positive
- mutagenic call (Test System: AMES SALMONELLA TYPHIMURIUM, Strain/Indicator: TA100, Metabolic Activation: GLUTATHIONE): active; positive
- mutagenic call (Test System: AMES SALMONELLA TYPHIMURIUM, Strain/Indicator: TA100, Metabolic Activation: GLUTATHIONE, Method: DESICCATOR): active; positive
- mutagenic call (Test System: AMES SALMONELLA TYPHIMURIUM, Strain/Indicator: TA100, Metabolic Activation: NONE): active; positive
- mutagenic call (Test System: AMES SALMONELLA TYPHIMURIUM, Strain/Indicator: TA100, Metabolic Activation: NONE, Method: DESICCATOR): active; positive
- mutagenic call (Test System: AMES SALMONELLA TYPHIMURIUM, Strain/Indicator: TA100, Metabolic Activation: NONE, Method: GAS EXPOSURE): active; positive
- mutagenic call (Test System: AMES SALMONELLA TYPHIMURIUM, Strain/Indicator: TA100, Metabolic Activation: RAT, LIVER, MICROSOMES, AROCLOR 1254): active; positive
- mutagenic call (Test System: AMES SALMONELLA TYPHIMURIUM, Strain/Indicator: TA100, Metabolic Activation: RAT, LIVER, S-9, AROCLOR 1254): active; positive
- mutagenic call (Test System: AMES SALMONELLA TYPHIMURIUM, Strain/Indicator: TA100, Metabolic Activation: RAT, LIVER, S-9, AROCLOR 1254, GLUTATHIONE): active; positive
- mutagenic call (Test System: AMES SALMONELLA TYPHIMURIUM, Strain/Indicator: TA100, Metabolic Activation: RAT, LIVER, S-9, AROCLOR 1254, Method: STANDARD PLATE): active; positive
- mutagenic call (Test System: AMES SALMONELLA TYPHIMURIUM, Strain/Indicator: TA100, Metabolic Activation: RAT, LIVER, S-9, PHENOBARBITAL AND BETA-NAPHTHOFLAVONE, Method: GAS EXPOSURE): active; positive
- mutagenic call (Test System: AMES SALMONELLA TYPHIMURIUM, Strain/Indicator: TA100, Metabolic Activation: RAT, LIVER, S-9, PHENOBARBITAL, Method: DESICCATOR): active; positive
- mutagenic call (Test System: AMES SALMONELLA TYPHIMURIUM, Strain/Indicator: TA100, Metabolic Activation: RAT, LIVER, S-100, AROCLOR 1254): active; positive
- mutagenic call (Test System: AMES SALMONELLA TYPHIMURIUM, Strain/Indicator: TA102, Metabolic Activation: NONE, Method: STANDARD PLATE): inactive; negative
- mutagenic call (Test System: AMES SALMONELLA TYPHIMURIUM, Strain/Indicator: TA104, Metabolic Activation: NONE, Method: STANDARD PLATE): active; positive
- mutagenic call (Test System: AMES SALMONELLA TYPHIMURIUM, Strain/Indicator: TA104, Metabolic Activation: RAT, LIVER, S-9, AROCLOR 1254, Method: STANDARD PLATE): inactive; negative
- mutagenic call (Test System: AMES SALMONELLA TYPHIMURIUM, Strain/Indicator: TA1535 (GST+), Metabolic Activation: NONE, Method: STANDARD PLATE): active; positive
- mutagenic call (Test System: AMES SALMONELLA TYPHIMURIUM, Strain/Indicator: TA1535, Metabolic Activation: NONE, Method: GAS EXPOSURE): active; positive
- mutagenic call (Test System: AMES SALMONELLA TYPHIMURIUM, Strain/Indicator: TA1535, Metabolic Activation: NONE, Method: STANDARD PLATE): inactive; negative
- mutagenic call (Test System: AMES SALMONELLA TYPHIMURIUM, Strain/Indicator: TA1535, Metabolic Activation: RAT, LIVER, S-9, PHENOBARBITAL AND BETA-NAPHTHOFLAVONE, Method: GAS EXPOSURE): active; positive
- mutagenic call (Test System: AMES SALMONELLA TYPHIMURIUM, Strain/Indicator: TA1537, Metabolic Activation: NONE, Method: GAS EXPOSURE): inactive; negative
- mutagenic call (Test System: AMES SALMONELLA TYPHIMURIUM, Strain/Indicator: TA1537, Metabolic Activation: RAT, LIVER, S-9, PHENOBARBITAL AND BETA-NAPHTHOFLAVONE, Method: GAS EXPOSURE): inactive; negative
- mutagenic call (Test System: AMES SALMONELLA TYPHIMURIUM, Strain/Indicator: TA2638, Metabolic Activation: NONE, Method: STANDARD PLATE): inactive; negative
- mutagenic call (Test System: CHINESE HAMSTER OVARY, Strain/Indicator: CHO-K1 (HPRT)/6-THIOGUANINE, Metabolic Activation: MOUSE, LIVER, S-100 (2.5-25%), 5 MILLIMOLAR GLUTATHIONE, Method: SUSPENSION/PLATE): active; positive
- mutagenic call (Test System: CHINESE HAMSTER OVARY, Strain/Indicator: CHO-K1 (HPRT)/6-THIOGUANINE, Metabolic Activation: MOUSE, LIVER, S-100 (15-25%), DL-BUTHIONINE-(S,R)-SULFOXIMINE, Method: SUSPENSION): inactive; negative
- mutagenic call (Test System: CHINESE HAMSTER OVARY, Strain/Indicator: CHO-K1 (HPRT)/6-THIOGUANINE, Metabolic Activation: MOUSE, LIVER, S-100 (15-35%), 5 MILLIMOLAR GLUTATHIONE, Method: SUSPENSION): active; positive
- mutagenic call (Test System: E. COLI, Strain/Indicator: K12(AB1157), Metabolic Activation: MOUSE, LIVER, S-9, Method: SUSPENSION/PLATE): active; positive
- mutagenic call (Test System: E. COLI, Strain/Indicator: K12(AB1157), Metabolic Activation: NONE, Method: SUSPENSION/PLATE): inactive; negative
- mutagenic call (Test System: E. COLI, Strain/Indicator: K12(AB1157), Metabolic Activation: RAT, LIVER, S-9, Method: SUSPENSION/PLATE): inactive; negative
- mutagenic call (Test System: E. COLI, Strain/Indicator: K12(AB1886) UVRA, Metabolic Activation: MOUSE, LIVER, S-9, Method: SUSPENSION/PLATE): inactive; negative
- mutagenic call (Test System: E. COLI, Strain/Indicator: K12(AB1886) UVRA, Metabolic Activation: NONE, Method: SUSPENSION/PLATE): inactive; negative
- mutagenic call (Test System: E. COLI, Strain/Indicator: K12(AB1886) UVRA, Metabolic Activation: RAT, LIVER, S-9, Method: SUSPENSION/PLATE): inactive; negative
- mutagenic call (Test System: E. COLI, Strain/Indicator: WP2 (PKM101), Metabolic Activation: NONE, Method: STANDARD PLATE): inactive; negative
- mutagenic call (Test System: E. COLI, Strain/Indicator: WP2 UVRA (PKM101), Metabolic Activation: NONE): active; positive
- mutagenic call (Test System: E. COLI, Strain/Indicator: WP2 UVRA (PKM101), Metabolic Activation: NONE, Method: STANDARD PLATE): inactive; negative
- mutagenic call (Test System: E. COLI, Strain/Indicator: WP2 UVRA (PKM101), Metabolic Activation: RAT, LIVER, HOMOGENATE, AROCLOR 1254): active; positive
- mutagenic call (Test System: E. COLI, Strain/Indicator: WP2 UVRA (PKM101), Metabolic Activation: RAT, LIVER, MICROSOMES, AROCLOR 1254): active; positive
- mutagenic call (Test System: E. COLI, Strain/Indicator: WP2 UVRA (PKM101), Metabolic Activation: RAT, LIVER, S-9, AROCLOR 1254): active; positive
- mutagenic call (Test System: E. COLI, Strain/Indicator: WP2 UVRA (PKM101), Metabolic Activation: RAT, LIVER, S-100, AROCLOR 1254): active; positive
- mutagenic call (Test System: E. COLI, Strain/Indicator: WP2UVRA/PKM101, Metabolic Activation: NONE, Method: GAS EXPOSURE): active; positive
- mutagenic call (Test System: E. COLI, Strain/Indicator: WP2UVRA/PKM101, Metabolic Activation: RAT, LIVER, S-9, PHENOBARBITAL AND BETA-NAPHTHOFLAVONE, Method: GAS EXPOSURE): active; positive
- mutagenic call (Test System: E. COLI, Strain/Indicator: WP2UVRA, Metabolic Activation: NONE, Method: GAS EXPOSURE): active; positive
- mutagenic call (Test System: E. COLI, Strain/Indicator: WP2UVRA, Metabolic Activation: RAT, LIVER, S-9, PHENOBARBITAL AND BETA-NAPHTHOFLAVONE, Method: GAS EXPOSURE): active; positive
- mutagenic call (Test System: Mouse lymphoma, Strain/Indicator: L5178Y (tk+/tk-), Metabolic Activation: None, Method: Suspension/plate): inactive; negative
- mutagenic call (Test System: Mouse lymphoma, Strain/Indicator: L5178Y (tk+/tk-), Metabolic Activation: Rat, Liver, S-9, Aroclor 1254, Method: Suspension/plate): inactive; negative
